Where “and” joins values, the source holds several entries; their conditions need not be identical. Equal entries are not always repeated. Where a SMILES comes first, the peptide text is derived from it. Bridges are numbered along the chain shown (N, C = ends). Where no end group is shown, it is not given here. [ ]: non-standard residue; d: D form. S5 = C=CCCC[C@](C)(N)C(=O)O
How the values were obtained:
S. typhimurium LT2 = conditions: cation-adjusted MHB, ~5 × 10^5 CFU/ml, 37°C, 19 h + 1 h resazurin, OD600, at least three replicates for peptides, one for antibiotics
S. aureus ATCC 29213 = conditions: cation-adjusted MHB, ~5 × 10^5 CFU/ml, 37°C, 19 h + 1 h resazurin, OD600, at least three replicates for peptides, one for antibiotics
E. coli O157:H7 = conditions: cation-adjusted MHB, ~5 × 10^5 CFU/ml, 37°C, 19 h + 1 h resazurin, OD600, at least three replicates for peptides, one for antibiotics
B. subtilis 168 = conditions: cation-adjusted MHB, ~5 × 10^5 CFU/ml, 37°C, 19 h + 1 h resazurin, OD600, at least three replicates for peptides, one for antibiotics
trypsin = experiment: Trypsin digestion assay; format: in vitro ADME; conditions: trypsin:peptide 1:1333, 0.1 M NH4HCO3 pH 8.0, 37°C, RP-HPLC peak area, performed thrice; for stability against trypsin (comparison in words): up to 8 min
Description: 250 μl of peptide solution in ammonium bicarbonate buffer (0.1 M NH4HCO3, pH 8.0) and an appropriate amount of trypsin (Sigma-Aldrich) solution in water were incubated at 37°C with rapid shaking (600 rpm). Trypsin and peptides were mixed in the ratio (1:1333; [Luong et al., 2017b]). After 2, 4, 6, and 8 min of incubation, 60 μl of digestion mixture was taken and treated with 60 μl of a solution of 50% acetonitrile containing 1% TFA to stop the digestion. Peptide degradation was analyzed with RP-HPLC using analytical methods to assess peptide purity (see subsection Synthesis of stapled anoplins). The results were calculated as the percentage of peptide peak of area degradation. The total area of every peak was designated for experiments without trypsin. Each of the experiments was performed thrice.

[1] = system: S. aureus ATCC BAA1720 MRSA; conditions: cation-adjusted MHB, ~5 × 10^5 CFU/ml, 37°C, 19 h + 1 h resazurin, OD600, at least three replicates for peptides, one for antibiotics
HEK 293 cells [2] = experiment: DAPI staining, confocal microscopy of cell morphology; format: cell-based, human; conditions: HEK 293, 24 h, 64 μM of anoplin, 8–32 μM of derivatives (32 μM of anoplin[2-6]), confocal microscope
Description: 1 × 10^5 cells were seeded into coverslips and incubated for 24 h. The cells were then treated with anoplin (64 μM) or its derivatives (8–32 μM) for 24 h. Next, cells were washed with PBS and fixed in 4% PFA for 15 min at room temperature. After three washes with PBS, cells were stained with DAPI (4′,6-diamidino-2-phenylindole, dihydrochloride; Boster) for 5 min (as indicated in the instruction). Coverslips with cells were washed three times and mounted on a glass microscope slide using a Dako Fluorescence Mounting Medium. Images were acquired with Axio Imager Z2 LSM 700 Zeiss confocal microscope.

E. coli 1841/06 ESBL+ = conditions: cation-adjusted MHB, ~5 × 10^5 CFU/ml, 37°C, 19 h + 1 h resazurin, OD600, at least three replicates for peptides, one for antibiotics
P. aeruginosa ATCC 27853 = conditions: cation-adjusted MHB, ~5 × 10^5 CFU/ml, 37°C, 19 h + 1 h resazurin, OD600, at least three replicates for peptides, one for antibiotics
E. coli WR 3551/98 ESBL+ = conditions: cation-adjusted MHB, ~5 × 10^5 CFU/ml, 37°C, 19 h + 1 h resazurin, OD600, at least three replicates for peptides, one for antibiotics
E. coli K12 MG1655 = conditions: cation-adjusted MHB, ~5 × 10^5 CFU/ml, 37°C, 19 h + 1 h resazurin, OD600, at least three replicates for peptides, one for antibiotics
P. aeruginosa PAO1 = conditions: cation-adjusted MHB, ~5 × 10^5 CFU/ml, 37°C, 19 h + 1 h resazurin, OD600, at least three replicates for peptides, one for antibiotics
sheep red blood cells = experiment: Hemolysis assay; format: cell-based; conditions: sheep RBC in PBS pH 7.4, 37°C, 30 min, absorbance 405 nm, relative to 1% Triton-X-100, average of three independent measurements
Description: Sheep RBC (200 μl) were pelleted (3,500 rpm for 5 min), washed three times with PBS buffer (PBS 10 mM and 150 mM NaCl, pH 7.4). The cells were then diluted in PBS buffer (10 ml), divided into 50 parts into 1.5 ml tubes, and pelleted by centrifugation. Various concentrations of peptide solutions (200 μl) were added to the cells and incubated with shaking (165 rpm, 37°C) for 30 min. The cells were pelleted by centrifugation (3,500 rpm for 5 min). Then, 100 μl of supernatant from each tube was collected into a clear 96-well plate, and the absorbance of the released hemoglobin was measured with a plate reader spectrophotometer (Microplate Reader Biotek, Winooski, VT, United States) at 405 nm. Hemolysis was determined relative to the negative control (PBS) and the positive control (1% v/v Triton-X-100 that lyses 100% of RBC). The percentage of hemolysis was determined using the following equation:
where A0 is the absorbance intensity of the RBC in buffer (background), and A and A100 are the absorbance intensities of the RBS in the presence of peptides and Triton X-100, respectively.The tests were performed with duplicate samples, and the average values of three independent measurements were recorded.

HEK 293 cells [3] = experiment: Cytotoxicity assay (MTT); format: cell-based, human; conditions: n = 3
Description: The HEK 293 cells were seeded at a density 2 × 10^4 per well on a 96-well plate and incubated in high glucose DMEM medium (Lonza) supplemented with 10% FBS and 50 U/ml of penicillin–streptomycin at 37°C in 5% CO2. After 24 h, cells were covered with a fresh medium containing tested peptides at different concentrations (4, 8, 16, and 32 μM). After 24 or 48 h of incubation, cells viability was tested using MTT [3-(4,5-dimethylthiazol-2-yl)-2,5-diphenyltetrazolium bromide] (Merck). Briefly, 10 μl of 5 mg/ml MTT was added to each well and incubated for 4 h. Formazan produced from MTT was solubilized during overnight incubation in 100 μl of 10% SDS in 0.01 M HCl. Absorbance at 590 nm was measured using Microplate Reader Biotek (Winooski, VT, United States). The experiment was performed in triplicates.

Compound | MIC (S. typhimurium LT2) | MIC (S. aureus ATCC 29213) | MIC (E. coli O157:H7) | MIC (B. subtilis 168) | stability against trypsin (comparison in words) (trypsin) | MIC [1] | morphology of cells (HEK 293 cells [2]) | MIC (E. coli 1841/06 ESBL+) | MIC (P. aeruginosa ATCC 27853) | MIC (E. coli WR 3551/98 ESBL+) | MIC (E. coli K12 MG1655) | MIC (P. aeruginosa PAO1) | Hemolytic activity (sheep red blood cells; 4 μM peptide) | Hemolytic activity (sheep red blood cells; 8 μM peptide) | Hemolytic activity (sheep red blood cells; 16 μM peptide) | Hemolytic activity (sheep red blood cells; 32 μM peptide) | Hemolytic activity (sheep red blood cells; 64 μM peptide) | also measured
C=CCCC[C@](C)(NC(=O)[C@H](CCCCN)NC(=O)[C@H](CC(C)C)NC(=O)[C@H](CC(C)C)NC(=O)CN)C(=O)N[C@H](C(=O)N[C@@H](CCCCN)C(=O)N[C@H](C(=O)N[C@@](C)(CCCC=C)C(=O)N[C@@H](CC(C)C)C(N)=O)[C@@H](C)O)[C@@H](C)CC [anoplinS5(5,9)] (H-GLLK[S5]IKT[S5]L-NH2) | ≥64 µM | 8 µM | 32 µM | 8 µM | significantly higher stability against trypsin | 8 µM | altered cell appearance and the presence of cellular debris | 32 µM | ≥64 µM | 64 µM | 64 µM | 64 µM | 6.7% | 7.2% | 8.9% | 11.9% | 14.2% | stability against trypsin (comparison in words) (trypsin; listed as S5(5-9) peptide): highest enzymatic resistance
CC[C@H](C)[C@@H]1NC(=O)[C@@](C)(NC(=O)[C@H](CCCCN)NC(=O)[C@H](CC(C)C)NC(=O)[C@H](CC(C)C)NC(=O)CN)CCCC=CCCC[C@@](C)(C(=O)N[C@@H](CC(C)C)C(N)=O)NC(=O)[C@H]([C@@H](C)O)NC(=O)[C@H](CCCCN)NC1=O [anoplin[5-9]] (H-GLLK[S5]IKT[S5]L-NH2; staple 5-9) | 32 µM | 4 µM | 8 µM | 4 µM | significantly higher stability against trypsin | 4 µM | altered cell appearance and the presence of cellular debris | 8 µM | 32 µM | 16 µM | 16 µM | 16 µM | 6.5% | 16.6% | 29.8% | – | 62.7% | dead cells (HEK 293 cells [3]; HEK 293, 16 μM peptide): approximately 60%; effect on living cells (HEK 293 cells [3]; HEK 293, 32 μM peptide): nearly eliminated all living cells; Hemolytic activity (sheep red blood cells; 32 μM peptide, listed as Anoplin[5-9]): 43.2%; Hemolytic activity (sheep red blood cells; 32 μM peptide, listed as anoplin [5-9]): 43%
NC[C@H]1O[C@H](O[C@H]2[C@H](O)[C@@H](O[C@H]3O[C@H](CO)[C@@H](O)[C@H](N)[C@H]3O)[C@H](N)C[C@@H]2N)[C@H](O)[C@@H](O)[C@@H]1O [kanamycin] | ≥64 µM | 4 µM | 2 µM | 0.25 µM | – | ≥64 µM | – | ≥64 µM | ≥64 µM | ≥64 µM | 8 µM | ≥64 µM | – | – | – | – | – | –
GLLKRIKTLL-NH2 [anoplin] | 64 µM | ≥64 µM | 64 µM | 16 µM | – | ≥64 µM | not altered | 64 µM | 32 µM | 64 µM | 32 µM | 16 µM | 0.5% | 1.3% | 0.7% | 4% and 0.6% | 2.3% | effect on cell viability compared to untreated control cells (HEK 293 cells [3]; HEK 293, 4-32 μM peptide, 24 and 48 h of treatment): no significant effect on cell viability; time of incubation with trypsin to complete decay of the peptide peak (trypsin; 600 rpm, sampled at 2, 4, 6, 8 min): 4 to 6 min
polymyxin B | 0.5 µM | ≥64 µM | 0.5 µM | 2 µM | – | ≥64 µM | – | 0.25 µM | 0.25 µM | 0.5 µM | 0.25 µM | 0.5 µM | – | – | – | – | – | –
